Earlier results in publication PMC11187573, “Identification of SARS-CoV-2 Mpro inhibitors through deep reinforcement learning for de novo drug design and computational chemistry approaches” (RSC Medicinal Chemistry, 2024).

Tested on: Mpro
Details: ML dataset, Origin COVID_Moonshot; ref COVID Moonshot; cited from earlier work

SMILES	IC50 [µM]
COc1ccc(N(Cc2cccc(Cl)c2)C(=O)Cn2nnc3ccccc32)cc1 [CHO-MSK-00c5269a-2]	3.4
O=C(Cn1nnc2ccccc21)N(Cc1cccc(Cl)c1)c1ccc(N2CCCCC2)cc1 [CHO-MSK-00c5269a-5]	4.83
Cc1ccncc1NC(=O)Cc1cc(Cl)cc(OCc2nnc(C3CCCCC3)o2)c1 [CHO-MSK-6e55470f-7]	17
O=C(Nc1cnccc1Cl)c1cc(Cl)ccc1O [CHR-SOS-7098f804-10]	24.2
O=C(Nc1cccnc1)c1cc(Cl)ccc1-c1ccccc1 [CHR-SOS-7098f804-14]	39.1
N#Cc1cccc(NC(=O)Nc2cncc(N)c2)c1 [DAR-DIA-23aa0b97-8]	54.3
N#Cc1cccc(NC(=O)Nc2c[nH]c3ncccc23)c1 [DAR-DIA-23aa0b97-11]	63.6
CC(=O)NC(C)c1cc(F)cc(Cl)c1 (centres unmarked) [DAV-CRI-3edb475e-6, Mpro-x10172]	24.4
Cc1ccncc1NC(=O)N(Cc1ccccc1)c1cccc(Cl)c1 [EDG-MED-0da5ad92-20]	22.9
O=C(Nc1cncc2[nH]c(=O)[nH]c12)C1CCOc2ccc(Cl)cc21 (centres unmarked) [EDG-MED-0e5afe9d-2]	62.8
NS(=O)(=O)c1[nH]ncc1C(=O)NC[C@@]1(C(=O)Nc2cncc3ccccc23)CCOc2ccc(Cl)cc21 [EDJ-MED-4c7486ba-8]	1.99
COCC1(C(=O)Nc2cncc3ccccc23)CCOc2cc(Cl)c(Cl)cc21 (centres unmarked) [EDJ-MED-37aac4bd-2]	4.04
O=C(Cc1cccc(Cl)c1)Nc1cncc2c1OCCC2 [EDJ-MED-976da9a6-1]	10.9
Cc1ccncc1N1CCC(c2cccc(Cl)c2)S1(=O)=O (centres unmarked) [EDJ-MED-49816e9b-4]	76.6
Cc1cc(C(F)(F)F)nc2n[nH]c(NC(=O)Cc3cccc(Cl)c3)c12 [EDJ-MED-c8e7a002-5]	90.7
O=C(Cc1cccc(Cl)c1)Nc1n[nH]c2ccc(F)cc12 [EDJ-MED-c8e7a002-9]	94
O=C(Cc1cccc(Cl)c1)Nc1[nH]nc2cccc(F)c12 [EDJ-MED-c8e7a002-13]	90.6
C[C@H]1C[C@@H](C(=O)Nc2cncc3ccccc23)c2cc(Cl)ccc2O1 [EDJ-MED-e4b030d8-3]	32.7
Cc1c(Cl)ccc2c1[C@H](C(=O)Nc1cncc3ccccc13)CCO2 [EDJ-MED-e4b030d8-8]	3.67
Cc1ccncc1N1CCC(c2cccc(Cl)c2)C1=O (centres unmarked) [EDJ-MED-e66f2cc5-1]	28.8
O=C(c1cc(=O)[nH]c2ccccc12)N1CCN(c2cccc(C(F)(F)F)c2)CC1 [ERI-UCB-a0b0dbcb-4]	4.72
O=C(c1cc(=O)[nH]c2ccccc12)N1CCN(Cc2cccc(Cl)c2)CC1 [ERI-UCB-a0b0dbcb-12]	4.57

SMILES	IC50 [µM]
O=C(c1cc(=O)[nH]c2ccccc12)N1CCN(Cc2cccc(C(F)(F)F)c2)CC1 [ERI-UCB-a0b0dbcb-13]	34.2
O=C(Cc1cncc2ccccc12)Nc1cc(Cl)cc(OC2CCC(=O)N2)c1 (centres unmarked) [ERI-UCB-ce40166b-6]	28.9
O=C(Nc1cncc2ccccc12)C1COc2c(Cl)cccc21 (centres unmarked) [FRA-DIA-c7e803f4-1]	5.06
COc1ccc2c(NC(=O)C3CCOc4ccc(Cl)cc43)noc2c1 (centres unmarked) [JAG-UCB-52b62a6f-10]	57.5
O=C(Nc1n[nH]c2ccnc(Br)c12)C1CCOc2ccc(Cl)cc21 (centres unmarked) [JAG-UCB-52b62a6f-15]	86.8
O=C(Nc1n[nH]c2ccncc12)C1CCOc2ccc(Cl)cc21 (centres unmarked) [JAG-UCB-52b62a6f-16]	70.3
O=C(Nc1cnccc1CO)C1COc2ccc(Cl)cc21 (centres unmarked) [JAG-UCB-a3ef7265-3, Mpro-x10338]	30.4
O=C(Nc1cnccc1CO)[C@@H]1COc2ccc(Cl)cc21 [JAG-UCB-a3ef7265-3]	30.4
O=C(Cc1cccc(Cl)c1)Nc1nnn[nH]1 [JAN-GHE-5a013bed-11]	45.3
O=C(Cc1cncc2ccccc12)N1CCOc2ccc(Cl)cc21 [JOH-UNI-ea1df7a8-1]	4.85
O=C(Nc1c[nH]c(=O)c2ccccc12)C1CCOc2ccc(Cl)cc21 (centres unmarked) [JOH-UNI-f51e3bbc-1]	91.6
CC(C)Cn1cc(NC(=O)NCc2ccco2)c2ccccc2c1=O [LON-WEI-4d77710c-44]	29.6
COC(=O)c1c(C)nn(C(=O)c2cccs2)c1-c1snnc1C [LON-WEI-4d77710c-66]	3.12
O=C(Nc1ccc(Cl)cc1)[C@@H](c1ccccc1)N1Cc2ccccc2C1=O [LON-WEI-b2874fec-16]	82.3
O=C(NCc1cccs1)[C@@H](c1ccccc1)N1Cc2ccccc2C1=O [LON-WEI-f8a636e2-1]	90.7
COc1ccccc1OCCC(=O)Nc1cncc2ccccc12 [MAR-UCB-f313ec4d-3]	90.9
CN(C)C(C(=O)Nc1cncc2ccccc12)c1ccc(Cl)c(Cl)c1 (centres unmarked) [MAT-POS-1f3f1a6f-2]	4.27
CC(=O)NC(C(=O)Nc1cncc2ccccc12)c1ccc(Cl)c(Cl)c1 (centres unmarked) [MAT-POS-1f3f1a6f-3]	4.05
O=C(Nc1cncc2ccccc12)C(NCC1CC1)c1ccc(Cl)c(Cl)c1 (centres unmarked) [MAT-POS-1f3f1a6f-4]	1.75
O=C(Cc1cc(Cl)cc(OC2CC(=O)N2)c1)Nc1cc(=O)[nH]c2ccccc12 (centres unmarked) [MAT-POS-3b92565d-6]	91.1
CN(C)C(=O)CC1(C(=O)Nc2cncc3ccccc23)CCOc2ccc(Cl)cc21 (centres unmarked) [MAT-POS-5d65ec79-1]	2.92
OC(Cc1cccc(Cl)c1)Cn1cncn1 (centres unmarked) [MAT-POS-6da3605a-2]	82.2

SMILES	IC50 [µM]
O=C(Nc1cncc2ccccc12)C1(CO)CCOc2ccc(Cl)cc21 (centres unmarked) [MAT-POS-9db1e783-2]	1.09
O=C(Cc1cc(Cl)cc(OC2CCC(=O)N2)c1)Nc1cncc2ccccc12 (centres unmarked) [MAT-POS-9ff17035-1]	85.9
O=C(Cc1cc(Cl)cc(Oc2cccc(=O)[nH]2)c1)Nc1cncc2ccccc12 [MAT-POS-9ff17035-2]	1.98
O=C(Cc1cccc(Cl)c1)Nc1cncc2c1CCCN2 [MAT-POS-14ad9fe9-1]	5.66
O=C(Cc1ccc(Cl)c(Cl)c1)Nc1cncc2ccccc12 [MAT-POS-23a8a11a-1, O=C(Cc1ccc(Cl)c(Cl)c1)Nc1cncc2ccccc12, reference compound]	0.196
CNC(=O)C1(CC(=O)Nc2cncc3ccccc23)CCOc2ccc(Cl)cc21 (centres unmarked) [MAT-POS-78e1d523-2]	30.7
CC(C(N)=O)c1cc(Cl)cc(CC(=O)Nc2cncc3ccccc23)c1 (centres unmarked) [MAT-POS-281d2ee9-1]	2.62
O=C(Cc1cc(Cl)cc(-c2nnn[nH]2)c1)Nc1cncc2ccccc12 [MAT-POS-281d2ee9-3]	21.4
O=C1CC(C(=O)N2CCN(c3cccc(Cl)c3)CC2)c2ccccc2N1 (centres unmarked) [MAT-POS-450cb4f9-1]	20.9
Cc1cc(C)c(C)c(S(=O)(=O)N2CCN(C(=O)c3cc(=O)[nH]c4ccccc34)CC2)c1C [MAT-POS-916a2c5a-3]	6.11
O=C(c1cc(=O)[nH]c2ccccc12)N1CCN(c2ccccc2)CC1 [MAT-POS-916a2c5a-4, MAT-POS-916a2c5a-4, Mpro-x3303]	19
O=C(c1cc(=O)[nH]c2ccccc12)N1CCN(c2ccccc2)CC1 [MAT-POS-916a2c5a-4]	19
Cc1ccncc1NC(=O)Cc1cc(Cl)cc(NC2CCC(F)(F)C2O)c1 (centres unmarked) [MAT-POS-044491d2-2]	24.4
Cc1ccncc1NC(=O)Cc1cc(Cl)cc(NC2(C)CCC(F)(F)CC2)c1 [MAT-POS-044491d2-6]	30.1
O=C1CC(Oc2cc(Cl)cc(N(CCC3CCCCC3)C(=O)Nc3cncc4ccccc34)c2)N1 (centres unmarked) [MAT-POS-53907a1c-3, O=C(Nc1cncc2ccccc12)N(CCC1CCCCC1)c1cc(Cl)cc(OC(C2)NC2=O)c1, reference compound]	0.84
CNc1ccc(N(C(=O)Cn2nnc3ccccc32)c2cccc(Cl)c2)cc1 [MAT-POS-06036648-5]	7.95
Cc1ccncc1NC(=O)[C@H]1CCOc2ccc(Cl)cc21 [MAT-POS-b3e365b9-3]	5.66
CC(C)c1ccncc1NC(=O)Cc1cccc(Cl)c1 [MAT-POS-bb423b95-5]	22.9
N#Cc1ncn(CC(=O)Nc2ccc(Br)cc2Cl)n1 [MAT-POS-e10a589d-4]	9.3
CCCCc1nc(-c2nccn2Cc2ccoc2)c[nH]1 [MAT-POS-ea426761-53]	14.3
O=C1CC(C(=O)Nc2cncc3ccccc23)c2cc(Cl)cc(Cl)c2N1 (centres unmarked) [MAT-POS-f39f51fd-1]	2.74

Same assay, conditions: ML dataset, Origin ChEMBL; ref ChEMBL; cited from earlier work

SMILES	IC50 [µM]
Cn1sc(=O)n(Cc2ccccc2)c1=O [CHEMBL284861, CN(C(N1Cc2ccccc2)=O)SC1=O, reference compound]	0.14
Cc1nn(C)c(NCc2ccc(-c3cccs3)s2)c1[N+](=O)[O-] [CHEMBL375130]	20
CSc1[nH]nc(NC(=O)c2cccs2)c1S(=O)(=O)c1ccccc1 [CHEMBL378700]	15
O=[N+]([O-])c1cc(C(F)(F)F)ccc1S(=O)(=O)c1ccc(Cl)cc1 [CHEMBL380403]	12
O=C(Oc1cncc(Cl)c1)c1cc2ccccc2o1 [CHEMBL426898, O=C(c1cc(cccc2)c2o1)Oc1cc(Cl)cnc1, reference compound]	0.17
Cc1noc(NC(=O)c2ccc(-c3cc(C(F)(F)F)nn3C)s2)c1[N+](=O)[O-] [CHEMBL427404, Cc1noc(NC(c2ccc(-c3cc(C(F)(F)F)nn3C)s2)=O)c1[N+]([O-])=O, reference compound]	5
Nc1ccc2cc3ccc(N)cc3nc2c1 [CHEMBL465704, CHEMBL55400]	0.595
CC[C@H](CO)Nc1nc(NCc2ccc(-c3ccccn3)cc2)c2ncn(C(C)C)c2n1 [CHEMBL518800, CC[C@H](CO)Nc1nc(NCc(cc2)ccc2-c2ncccc2)c2ncn(C(C)C)c2n1, reference compound]	0.84
C/N=c1/nc(-c2ccccc2)n(-c2ccccc2)s1 [CHEMBL1188627, C/N=C(/N=C1c2ccccc2)\SN1c1ccccc1, reference compound]	0.98
Cc1ccc(C)c(-n2sc3cc(F)ccc3c2=O)c1 [CHEMBL1725120, Cc1cc(N2Sc(cc(cc3)F)c3C2=O)c(C)cc1, reference compound]	0.02
CCOC(=O)Cc1ccc(-c2ccccc2)cc1 [CHEMBL1886408, CCOC(Cc(cc1)ccc1-c1ccccc1)=O, reference compound]	0.2
Cc1ccc(-n2sc(=O)n(Cc3ccc(F)cc3)c2=O)cc1 [CHEMBL1917204, Cc(cc1)ccc1N(C(N1Cc(cc2)ccc2F)=O)SC1=O, reference compound]	0.19
